From ChEMBL document CHEMBL3132776, “Synthesis of amphiphilic, chalcogen-based redox modulators with in vitro cytotoxic activity against cancer cells, macrophages and microbes” (Medchemcomm, 2014)
Calls of active or inactive are those of the source. The rule behind the calls is not given here.

Experiments:
RAW264.7 = test: Cytotoxicity against mouse RAW264.7 cells assessed as reduction in cell viability after 24 hrs by MTT assay; format: functional, cell-based; settings: RAW264.7, 24 h
Erythrocyte [1] = test: Induction of membrane permeabilization assessed as hemolysis in RBC (unknown origin) at 100 microM by spectrophotometry based hemoglobin release assay; format: functional
HCT-116 [2] = test: Cytotoxicity against human p53-positive HCT116 cells assessed as reduction in cell viability after 24 hrs by MTT assay; format: functional, cell-based; settings: HCT-116, 24 h
Erythrocyte [3] = test: Induction of membrane permeabilization assessed as hemolysis in RBC (unknown origin) by spectrophotometry based hemoglobin release assay; format: functional, cell-based
[4] = Critical micelle concentration of the compound by KRUSS tensiometry; format: physicochemical
[5] = biological target: Hemoglobin HbA (Homo sapiens) (UniProt P69905+P68871); test: Binding affinity to Hemoglobin (unknown origin) at 10 mM by circular dichroism spectroscopy
Chain of Hemoglobin HbA (Homo sapiens) (P68871 2-147 partner limits assumed): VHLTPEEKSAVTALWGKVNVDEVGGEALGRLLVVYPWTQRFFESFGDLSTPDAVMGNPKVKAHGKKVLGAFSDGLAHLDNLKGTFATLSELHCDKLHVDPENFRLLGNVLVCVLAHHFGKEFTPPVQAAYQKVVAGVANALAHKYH
Chain of Hemoglobin HbA (Homo sapiens) (P69905 2-142 limits assumed): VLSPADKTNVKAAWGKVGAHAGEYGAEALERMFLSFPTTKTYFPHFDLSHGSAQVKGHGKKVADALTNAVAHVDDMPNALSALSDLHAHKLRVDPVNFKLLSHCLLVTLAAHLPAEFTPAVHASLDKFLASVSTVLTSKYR

HCT-116 [6] = test: Induction of superoxide anion radicals generation in human p53-positive HCT116 cells by DHE staining based fluorescence assay; format: functional, cell-based
Steinernema feltiae = test: Nematicidal activity against Steinernema feltiae assessed as reduction in viability after 24 hrs; format: functional; settings: read-out: LD50 (the source's name)
HCT-116 [7] = test: Reduction in mitochondrial membrane potential in human p53-positive HCT116 cells by JC-1 dye based fluorescence assay; format: functional, cell-based
[8] = Cytotoxicity against human ARPE19 cells assessed as reduction in cell viability after 24 hrs by MTT assay; format: cell-based; settings: ARPE-19, 24 h
Escherichia coli = test: Antibacterial activity against Escherichia coli M17 VKPM-B8208 by agar plate assay; format: functional, organism-based
HCT-116 [9] = test: Drug uptake in human p53-positive HCT116 cells after 48 hrs by energy-dispersive X-ray spectroscopy; format: ADME, cell-based; settings: hct-116, 48 h
HCT-116 [10] = test: Induction of superoxide anion radicals generation in human p53-positive HCT116 cells at 50 microM within 40 mins by DHE staining based fluorescence assay; format: functional, cell-based

SMILES: O=S(=O)([O-])OCCCCCCCCCCC[Se]c1ccccc1.[Na+]
- IC50 (RAW264.7): > 100 µM
- Activity (Erythrocyte [1]): 63.41%
- IC50 (HCT-116 [2]): > 100 µM
- Activity (Erythrocyte [3]): Dose-dependent effect
- CMC [4]: 1.1 mM

SMILES: O=S(=O)([O-])OCCCCCCCCCC[Se]c1ccccc1.[Na+]
- IC50 (RAW264.7): > 100 µM
- Activity (Erythrocyte [1]): 7.94%
- IC50 (HCT-116 [2]): > 100 µM
- Activity (Erythrocyte [3]): Dose-dependent effect
- CMC [4]: 1.2 mM

SMILES: O=S(=O)([O-])OCCCCCCCC[Se]c1ccccc1.[Na+]
- Activity [5]: Active
- Activity (HCT-116 [6]): inactive
- IC50 (RAW264.7): > 100 µM
- Activity (Erythrocyte [1]): 1.24%
- IC50 (HCT-116 [2]): > 100 µM
- LC50 (Steinernema feltiae): 30 µM
- Activity (Erythrocyte [3]): Dose-dependent effect
- CMC [4]: 2.6 mM
- Activity (HCT-116 [7]): inactive

SMILES: CCCCCCCCCCCCOS(=O)(=O)[O-].[Na+] [SODIUM LAURYL SULFATE]
- IC50 (RAW264.7): > 100 µM
- Activity (Erythrocyte [1]): 9.51%
- IC50 (HCT-116 [2]): > 100 µM
- LC50 (Steinernema feltiae): > 400 µM
- Activity (Erythrocyte [3]): Dose-dependent effect
- CMC [4]: 0.9 mM

SMILES: O=S(=O)([O-])OCCCCCCCCCC[Te]c1ccccc1.[Na+]
- IC50 (RAW264.7): 5.32 µM
- Activity (Erythrocyte [1]): 45.35%
- IC50 [8]: 50 µM
- IC50 (HCT-116 [2]): 7.47 µM
- Activity (Erythrocyte [3]): Dose-dependent effect
- CMC [4]: 0.9 mM

SMILES: O=S(=O)([O-])OCCCCCCCCC[Se]c1ccccc1.[Na+]
- IC50 (RAW264.7): > 100 µM
- Activity (Erythrocyte [1]): 2.73%
- IC50 (HCT-116 [2]): > 100 µM
- Activity (Erythrocyte [3]): Dose-dependent effect
- CMC [4]: 2.5 mM

SMILES: O=S(=O)([O-])OCCCCCCCCCCC[Te]c1ccccc1.[Na+]
- IC50 (RAW264.7): 7.84 µM
- Activity (Erythrocyte [1]): 53.35%
- IC50 [8]: 50 µM
- IC50 (HCT-116 [2]): 9.73 µM
- Activity (Erythrocyte [3]): Dose-dependent effect
- CMC [4]: 0.5 mM

SMILES: O=S(=O)([O-])OCCCCCCCCC[Te]c1ccccc1.[Na+]
- IC50 (RAW264.7): 4.67 µM
- Activity (Erythrocyte [1]): 20.44%
- IC50 [8]: 50 µM
- IC50 (HCT-116 [2]): 4.99 µM
- Activity (Erythrocyte [3]): Dose-dependent effect
- CMC [4]: 4.8 mM

SMILES: O=S(=O)([O-])OCCCCCCCC[Te]c1ccccc1.[Na+]
- Activity [5]: Active
- IC50 (Escherichia coli): 550 µM
- Drug uptake (HCT-116 [9]): Active
- Activity (HCT-116 [10]): Active
- IC50 (RAW264.7): 3.95 µM
- Activity (Erythrocyte [1]): 3.09%
- IC50 [8]: 50 µM
- IC50 (HCT-116 [2]): 5.99 µM
- LC50 (Steinernema feltiae): 78 µM
- Activity (Erythrocyte [3]): Dose-dependent effect
- CMC [4]: 5 mM

SMILES: O=S(=O)([O-])OCCCCCCCCCCCC[Se]c1ccccc1.[Na+]
- IC50 (RAW264.7): > 100 µM
- Activity (Erythrocyte [1]): 66.8%
- IC50 (HCT-116 [2]): > 100 µM
- Activity (Erythrocyte [3]): Dose-dependent effect
- CMC [4]: 0.7 mM

SMILES: O=S(=O)([O-])OCCCCCCCCCCCC[Te]c1ccccc1.[Na+]
- IC50 (RAW264.7): 4.96 µM
- Activity (Erythrocyte [1]): 67.61%
- IC50 [8]: 50 µM
- IC50 (HCT-116 [2]): 19.8 µM
- Activity (Erythrocyte [3]): Dose-dependent effect
- CMC [4]: 0.3 mM
